In publication PMC11456916, “A screen for cell envelope stress uncovers an inhibitor of prolipoprotein diacylglyceryl transferase, Lgt, in Escherichiacoli” (iScience, 2024):

System: 356 CRISPRi constructs in E. coli ΔtolC-pore
Experiment: CRISPRi collection fitness screen with sub-inhibitory compound
Format: cell-based
Conditions: for Growth represented as mean colony biomass: 1μg/ml MAC0452936, 6ng/ml LolCDE-in-1, 250 ng/ml Vancomycin, 7 ng/ml CHIR090, n=4; for Growth, mean colony biomass (n=4): + 7 ng/ml CHIR090
Source text: To that end, we screened the E. coli CRISPRi collection in the ΔtolC-pore genetic background with a sub-inhibitory concentration of MAC-0452936 and measured the fitness of all 356 CRISPRi mutants (Figure 4C and Data S4). […] To that end, we introduced either an arabinose inducible copy of lgt supplied on the pCHAP9231 plasmid[48] or the pBAD19s plasmid as a control into E. coli ΔtolC-pore and tested the potency of MAC-0452936 (Figure 4E). […] To test this hypothesis, we constructed E. coli ΔlgtΔtolC-pore with pCHAP9231[48] so that lgt expression was driven solely by arabinose from the plasmid.
For screens of the CRISPRi collection with MAC-0452936, the mobile CRISPRi collection was first conjugated into E. coli ΔtolC-pore as previously described.[30] The CRISPRi collection was then arrayed on solid agar at 1536 density using the Singer-ROTOR, such that each CRISPRi strain is arrayed in technical quadruplicate. […] The screens were conducted without CRISPRi induction, using just the 5–10% basal knockdown from the pFD152 CRISPRi plasmid. Following overnight growth, plates were imaged using high-resolution scanners (Epson Perfection v750), and colony biomass for each mutant was determined.

[1] = sub-inhibitory (¼ MIC) concentration, LB agar, basal knockdown

C[C@@H](O)[C@H](NC(=O)c1ccc(C#Cc2ccc(CN3CCOCC3)cc2)cc1)C(=O)NO [CHIR090]
Growth represented as mean colony biomass (gRNA accA): 0.9728 | Growth, mean colony biomass (n=4) (gRNA aceF): 1.1 | Growth, mean colony biomass (n=4) (gRNA alaS): 1.087 | Growth, mean colony biomass (n=4) (gRNA argS): 1.119 | Growth, mean colony biomass (n=4) (gRNA asnS): 1.015 | Growth, mean colony biomass (n=4) (gRNA bamA): 1.043 | Growth, mean colony biomass (n=4) (gRNA bamD): 1.088 | Growth, mean colony biomass (n=4) (gRNA bioA): 1.01 | Growth, mean colony biomass (n=4) (gRNA can): 1.059 | Growth represented as mean colony biomass (gRNA cca): 0.9249 | Growth represented as mean colony biomass (gRNA coaA): 0.8479 | Growth, mean colony biomass (n=4) (gRNA csrA): 1.056 | Growth represented as mean colony biomass (gRNA cydA): 1.062 | Growth represented as mean colony biomass (gRNA cydX): 1.061 | Growth represented as mean colony biomass (gRNA dapD): 0.9522 | Growth represented as mean colony biomass (gRNA dapE): 1.007 | Growth represented as mean colony biomass (gRNA der): 0.9768 | Growth represented as mean colony biomass (gRNA dfp): 0.8989 | Growth, mean colony biomass (n=4) (gRNA dnaC): 1.065 | Growth represented as mean colony biomass (gRNA dnaE): 1.058 | Growth represented as mean colony biomass (gRNA dnaN): 1.037 | Growth represented as mean colony biomass (gRNA dnaX): 0.9219 | Growth, mean colony biomass (n=4) (gRNA dut): 0.9955 | Growth represented as mean colony biomass (gRNA eno): 0.9728 | Growth represented as mean colony biomass (gRNA era): 1.02 | Growth represented as mean colony biomass (gRNA fabA): 0.9775 | Growth represented as mean colony biomass (gRNA fabG): 1.01 | Growth represented as mean colony biomass (gRNA fabI): 0.9675 | Growth represented as mean colony biomass (gRNA fdx): 0.979 | Growth represented as mean colony biomass (gRNA fldA): 1.057 | Growth, mean colony biomass (n=4) (gRNA folA): 0.9636 | Growth represented as mean colony biomass (gRNA folB): 1.017 | Growth, mean colony biomass (n=4) (gRNA folC): 1.012 | Growth represented as mean colony biomass (gRNA folE): 0.9169 | Growth represented as mean colony biomass (gRNA folP): 0.9924 | Growth represented as mean colony biomass (gRNA frr): 0.9411 | Growth, mean colony biomass (n=4) (gRNA ftsA): 0.9154 | Growth represented as mean colony biomass (gRNA gapA): 0.9821 | Growth, mean colony biomass (n=4) (gRNA glmS): 1.055 | Growth represented as mean colony biomass (gRNA glmU): 1.014 | Growth represented as mean colony biomass (gRNA gltX): 0.9512 | Growth, mean colony biomass (n=4) (gRNA glyA): 1.052 | Growth represented as mean colony biomass (gRNA groS): 0.9583 | Growth represented as mean colony biomass (gRNA grpE): 1.032 | Growth represented as mean colony biomass (gRNA guaA): 0.9865 | Growth, mean colony biomass (n=4) (gRNA hemD): 1.036 | Growth represented as mean colony biomass (gRNA hemG): 0.9689 | Growth represented as mean colony biomass (gRNA hemH): 0.992 | Growth represented as mean colony biomass (gRNA hemL): 0.9608 | Growth represented as mean colony biomass (gRNA higA): 1.023 | Growth represented as mean colony biomass (gRNA hisS): 0.9896 | Growth represented as mean colony biomass (gRNA holD): 0.9599 | Growth represented as mean colony biomass (gRNA hscA): 0.9776 | Growth, mean colony biomass (n=4) (gRNA infA): 1.073 | Growth represented as mean colony biomass (gRNA infC): 1.06 | Growth represented as mean colony biomass (gRNA iscU): 0.9911 | Growth represented as mean colony biomass (gRNA ispB): 0.9696 | Growth represented as mean colony biomass (gRNA ispF): 0.9551 | Growth, mean colony biomass (n=4) (gRNA leuS): 1.366 | Growth, mean colony biomass (n=4) (gRNA lexA): 1.376 | Growth represented as mean colony biomass (gRNA lolC): 0.8957 | Growth, mean colony biomass (n=4) (gRNA lptA): 1.212 | Growth, mean colony biomass (n=4) (gRNA lptB): 1.0261 | Growth represented as mean colony biomass (gRNA lptC): 1.089 | Growth represented as mean colony biomass (gRNA lptE): 1.06 | Growth represented as mean colony biomass (gRNA lptF): 1.019 | Growth represented as mean colony biomass (gRNA lptG): 1.007 | Growth represented as mean colony biomass (gRNA lpxC): 0.3105 | Growth represented as mean colony biomass (gRNA lpxD): 1.005 | Growth, mean colony biomass (n=4) (gRNA mnmA): 1.028 | Growth, mean colony biomass (n=4) (gRNA mrdB): 0.9292 | Growth represented as mean colony biomass (gRNA mreB): 0.9175 | Growth represented as mean colony biomass (gRNA mreC): 0.8842 | Growth, mean colony biomass (n=4) (gRNA msbA): 1.129 | Growth, mean colony biomass (n=4) (gRNA mukF): 0.98 | Growth represented as mean colony biomass (gRNA murB): 1.054 | Growth represented as mean colony biomass (gRNA murC): 0.9542 | Growth, mean colony biomass (n=4) (gRNA murI): 1.202 | Growth, mean colony biomass (n=4) (gRNA nadK): 1.005 | Growth represented as mean colony biomass (gRNA nusB): 1.054 | Growth represented as mean colony biomass (gRNA plsB): 0.9093 | Growth, mean colony biomass (n=4) (gRNA prmC): 0.9966 | Growth represented as mean colony biomass (gRNA proS): 0.9867 | Growth, mean colony biomass (n=4) (gRNA psd): 1.319 | Growth, mean colony biomass (n=4) (gRNA pssA): 0.939 | Growth, mean colony biomass (n=4) (gRNA ptsI): 1.093 | Growth represented as mean colony biomass (gRNA racR): 0.9688 | Growth, mean colony biomass (n=4) (gRNA rho): 0.9866 | Growth represented as mean colony biomass (gRNA ribA): 0.9235 | Growth represented as mean colony biomass (gRNA ribC): 0.9738 | Growth, mean colony biomass (n=4) (gRNA ribD): 1.097 | Growth represented as mean colony biomass (gRNA ribF): 0.9595 | Growth represented as mean colony biomass (gRNA rimM): 0.9147 | Growth represented as mean colony biomass (gRNA rluD): 1.0007 | Growth, mean colony biomass (n=4) (gRNA rne): 1.043 | Growth represented as mean colony biomass (gRNA rpe): 1.042 | Growth, mean colony biomass (n=4) (gRNA rplA): 0.9782 | Growth represented as mean colony biomass (gRNA rplD): 0.927 | Growth represented as mean colony biomass (gRNA rplE): 1.02 | Growth represented as mean colony biomass (gRNA rplJ): 0.8734 | Growth represented as mean colony biomass (gRNA rplO): 0.8878 | Growth, mean colony biomass (n=4) (gRNA rplP): 1.09 | Growth represented as mean colony biomass (gRNA rplQ): 1.099 | Growth represented as mean colony biomass (gRNA rplS): 0.9537 | Growth, mean colony biomass (n=4) (gRNA rplV): 1.004 | Growth, mean colony biomass (n=4) (gRNA rplX): 1.052 | Growth represented as mean colony biomass (gRNA rplY): 1.0779 | Growth, mean colony biomass (n=4) (gRNA rpmC): 0.9906 | Growth represented as mean colony biomass (gRNA rpmH): 1.001 | Growth represented as mean colony biomass (gRNA rpmI): 0.9513 | Growth, mean colony biomass (n=4) (gRNA rpoC): 1.121 | Growth, mean colony biomass (n=4) (gRNA rpoE): 1.013 | Growth represented as mean colony biomass (gRNA rpoH): 1.038 | Growth, mean colony biomass (n=4) (gRNA rpsC): 1.084 | Growth, mean colony biomass (n=4) (gRNA rpsD): 1.134 | Growth represented as mean colony biomass (gRNA rpsE): 0.9264 | Growth represented as mean colony biomass (gRNA rpsF): 1.096 | Growth, mean colony biomass (n=4) (gRNA rpsG): 0.9816 | Growth represented as mean colony biomass (gRNA rpsH): 0.9044 | Growth, mean colony biomass (n=4) (gRNA rpsK): 1.022 | Growth, mean colony biomass (n=4) (gRNA rpsL): 1.049 | Growth, mean colony biomass (n=4) (gRNA rpsM): 0.9866 | Growth, mean colony biomass (n=4) (gRNA rpsR): 1.0423 | Growth, mean colony biomass (n=4) (gRNA rpsT): 0.8858 | Growth represented as mean colony biomass (gRNA rsgA): 0.9517 | Growth represented as mean colony biomass (gRNA safA): 1.0001 | Growth, mean colony biomass (n=4) (gRNA secA): 1.136 | Growth represented as mean colony biomass (gRNA secY): 1.007 | Growth represented as mean colony biomass (gRNA serS): 1.071 | Growth represented as mean colony biomass (gRNA ssb): 1.053 | Growth represented as mean colony biomass (gRNA sucA): 0.9406 | Growth, mean colony biomass (n=4) (gRNA suhB): 1.008 | Growth represented as mean colony biomass (gRNA tilS): 1.04 | Growth represented as mean colony biomass (gRNA tonB): 0.9801 | Growth represented as mean colony biomass (gRNA trmD): 0.9934 | Growth represented as mean colony biomass (gRNA tsaB): 1.008 | Growth represented as mean colony biomass (gRNA tsaD): 0.9494 | Growth, mean colony biomass (n=4) (gRNA tsaE): 1.05 | Growth represented as mean colony biomass (gRNA tsf): 1.069 | Growth represented as mean colony biomass (gRNA tusE): 1.0146 | Growth represented as mean colony biomass (gRNA tyrS): 0.993 | Growth represented as mean colony biomass (gRNA ubiB): 0.9982 | Growth represented as mean colony biomass (gRNA ubiD): 0.963 | Growth, mean colony biomass (n=4) (gRNA waaA): 1.006 | Growth represented as mean colony biomass (gRNA ydaS): 0.976 | Growth represented as mean colony biomass (gRNA ydcD): 0.9913 | Growth represented as mean colony biomass (gRNA ydhL): 0.9285 | Growth, mean colony biomass (n=4) (gRNA yedN): 0.9909 | Growth represented as mean colony biomass (gRNA yejM): 0.9171 | Growth represented as mean colony biomass (gRNA yffS): 1.036 | Growth represented as mean colony biomass (gRNA ygeF): 1.069 | Growth, mean colony biomass (n=4) (gRNA ygeN): 0.9546 | Growth represented as mean colony biomass (gRNA yidC): 0.9824 | Growth represented as mean colony biomass (gRNA ymfE): 0.9789 | Growth represented as mean colony biomass (gRNA ymiB): 1.048 | Growth, mean colony biomass (n=4) (gRNA yqeL): 1.42 | Growth represented as mean colony biomass (gRNA yqgF): 1.058 | Growth, mean colony biomass (n=4) (gRNA zipA): 1.877 | growth defect of CRISPRi strains for the compound's molecular target (LolCDE complex and LpxC, respectively) [1]: strongest growth defect | growth defect of the lgt CRISPRi mutant in the presence of compound [1]: did not demonstrate a growth defect
